Laboratory results: patent publication US8293488B2, “Method for screening neurogenic agents” (Neuralstem, Inc., priority 2002, dated 2012)

Columns and labels:
Assay type in all cases: cell-based
[1] = system: human hippocampal multipotent stem/progenitor cells; test: Neurogenesis: ratio of TuJ1 stained neurons to total nuclei after 7 days; details: 20 ng/ml, differentiation media without mitogen, manual cell counting, controls 48.5+6.3%
Procedure: FIG. 3B. LIF effects on hippocampal cell proliferation and neurogenesis by manual cell counting. Hippocampal progenitor cells were treated for seven days with differentiation media (without mitogen) in the presence or absence of 20 ng/ml LIF. Three fields were analyzed per well for total number of cells (DAPI positive nuclei) and for total number of neurons (TUJI positive cells). Bars represent the Mean+SD from 4 wells per treatment. The percentage of neurons calculated for each treatment are as follows: 48.5+6.3% for controls and 53.6+1.15 for LIF. The non-TUJ1 positive cells are mainly astrocytic (GFAP+).
FIG. 5. Example of neurogenesis profile of compounds selected from primary screening. After 7 days of compound treatment, the ratio of neuron number (TuJ1 stained) to the total nuclei number (Hoechst stained) was determined. Shown are the relative ratio of neuron:total cells for each compound over the vehicle control in percentage. […]
(8) The total cell number in each well was quantified by staining the cultures with a nuclear dye such as DAPI or Hoechst according to standard procedures.
(§1) (9) As a preliminary detection of positive activities, the overall immunostaining intensity in each well was read by a fluorescence plate reader. For the positive hits, more quantitative analysis was carried out by automated morphometric counting of individual cells.

[2] = system: human hippocampal progenitor cells; test: In vitro neurogenesis assay (primary screen, positive control selection); details: for effective in the neurogenesis assay: growth factors 20 ng/ml, 7 days
Procedure: FIG. 3A. Influence of known growth factors on proliferation and neurogenesis relative to control. Hippocampal progenitor cells were treated for seven days with differentiation media (without mitogen) in the presence or absence of 20 ng/ml of growth factor dosed every other day. Plates were treated with Alamar Blue as described in Methods, then fixed and stained with antibody (TuJ1) against type III beta-tubulin (neuronal marker). The 96-well plate was read in a fluorescent plate reader. Bars represent the Mean+SD from 4 wells per treatment.
(§2) (1) Undifferentiated human neural stem/progenitor cells were harvested by enzyme treatment.
(§3) (2) The collected cells were seeded at 40,000 cells per well of 96-well plates pre-coated with extracellular matrix proteins (e.g., Biocoat PDL, Fisher). The seeding media is a standard serum-free, growth factor-free, basal media that supports healthy neuronal/glial survival, such as N2 without phenol red.
(§4) (3) Test agents at appropriate concentrations were added to each well on Day 0.
(4) The assay plates were incubated for 7 days, with 50% media change at every other day. On Day 2, 4, and 6 of post-plating, additional increment of the screening agents at appropriate concentrations were added to each well.
(7) After the alamar blue assay, the cells were fixed and stained with antibodies against neuron-specific antigens according to standard procedures. Typical antigens effective were Type III-beta tubulin and MAP2c.
as §1
Thus, the assay can discriminate test agents for selectively having a neurogenic activity. The positive control utilized is leukemia inhibitory factor (LIF), a cytokine growth factor, at 20 ng/ml. The selection of LIF as the positive control is based on its properties to increase by 2-3 fold the number of neurons and glia. This effect validates both the neural stem cell system, in which, should a compound be effective in neurogenesis, the cells respond appropriately by enhanced differentiation and/or mitosis, and the assay method in which such cellular responses can be measured reproducibly and quantifiably.
5,628 synthetic compounds of the type Fused Imidazoles, Aminopyrimidines, Nicotinamides, Aminomethyl Phenoxypiperidines and Aryloxypiperidines are evaluated for their effect on neurogenesis according the assay method described above. […] Those were re-analyzed by quantitative neuron counting. […] The significance level was empirically set at an activity above 30% change over the vehicle control for proliferation and above 10% change for neurogenesis.

[3] = system: differentiating human hippocampal progenitor cells; test: Dose-response of neuron number (TuJ1 positive cells, automated cell counter); details: 7 days, 100 picaM to 100 microM
Procedure: FIG. 6. Examples of neurogenesis profile of compounds selected from primary screening. After 7 days of compound treatment, the cells were stained with TuJ1 for neurons. The absolute number of TuJ1+ neurons per area was quantified and expressed as a relative value to the vehicle treated control.
FIG. 7. Dose-dependent increase in neuron number. Differentiating human hippocampal progenitor cells were treated for 7 days with varying concentrations of “primary hits”. Subsequently, the cells were fixed, stained with TuJ1, and positive cells were quantified by an automated cell counter. Shown are the number of neurons after each treatment normalized against the vehicle control (0 microM=1.0).
(§5) Linearity of dose-response and in vitro neurotoxicity are used to further filter down desired compounds from the primary screen. The dose-response curve measures neurogenesis over a concentration range of 100 picaM to 100 microM. The rationale for this is to eliminate early on those compounds with pronounced toxicity and those without a dose-dependent effect on neurogenesis. […] Table II contains the summary of EC50 of each compound tested.

[4] = system: human hippocampal multipotent stem/progenitor cells; test: Proliferation by Alamar Blue staining of live cells after 7 days of compound treatment; details: 7 days compound treatment, relative to vehicle control
Procedure: FIG. 4. Examples of proliferation profile of compounds selected from primary screening. Proliferation was measured after compound treatment for 7 days by Alamar Blue staining of live cells per well. Shown are relative values over the vehicle control.
as §2, §3, §4
(4) The assay plates were incubated for 7 days, with 50% media change at every other day. On Day 2, 4, and 6 of post-plating, additional increment of the screening agents at appropriate concentrations were added to each well. […]
(6) The fluorescence of the oxidized dye in each well was read by a fluorescent plate reader with the following settings:
Excitation 530 nm, emission 590 nm, cutoff 570 nm The fluorescence level is proportional to the number of respiring cells in the culture and is a measure of a proliferative activity of a test agent (FIG. 2).

[5] = system: differentiating human hippocampal progenitor cells; test: In vitro neurotoxicity from dose-response curves; details: dose-response up to 100 microM
Description: as §5

leukemia inhibitory factor [LIF] was tested, and the “percentage of neurons (TUJ1 positive cells of DAPI positive nuclei)” value [1] was 53.6+1.15, the “increase in the number of neurons and glia” value ([2]; 20 ng/ml) was 2-3 fold and the “effective in the neurogenesis assay” value [2] was “effective”.

In the case of `NC(=O)c1cnc(NCc2ccc(Cl)cc2)nc1NCC1CCCCC1` [NSI-144], the EC50 [3] is reported as 1 nM, the “Proliferation (% of Control)” value [4] is reported as 149 ± 15 % of Control and the “Other Characterization of Toxicity” value [5] is reported as “No Toxicity”.

With `COc1ccc(C2CNC(=O)C2)cc1OC1CCCC1` (stereo not shown) [Rolipram, rolipram, reference compound] the “effective in the neurogenesis assay” value [2] was “effective”.

For `CCCCNc1c(C2CCN(C(=O)CN(CC(C)C)S(C)(=O)=O)CC2)nc2cnccn12` [NSI-106], the EC50 [3] was 0.1 nM, the “Proliferation (% of Control)” value [4] was 211 ± 48 % of Control and the “Other Characterization of Toxicity” value [5] was “No Toxicity”.

B1: glia-derived neurotrophic factor (protein, UniProt P39905 78-211, looked up)
Glial cell line-derived …: SPDKQMAVLPRRERNRQAAAANPENSRGKGRRGQRGKNRGCVLTAIHLNVTDLGLGYETKEELIFRYCSGSCDAAETTYDKILKNLSRNRRLVSDKVGQACCRPIAFDDDLSFLDDNLVYHILRKHSAKRCGCI
With B1 the “effective in the neurogenesis assay” value [2] was “Only one (leukemia inhibitory factor) was effective”.

B2: brain-derived neurotrophic factor (protein, UniProt P23560 19-247, looked up)
Neurotrophic factor BDNF …: APMKEANIRGQGGLAYPGVRTHGTLESVNGPKAGSRGLTSLADTFEHVIEELLDEDQKVRPNEENNKDADLYTSRVMLSSQVPLEPPLLFLLEEYKNYLDAANMSMRVRRHSDPARRGELSVCDSISEWVTAADKKTAVDMSGGTVTVLEKVPVSKGQLKQYFYETKCNPMGYTKEGCRGIDKRHWNSQCRTTQSYVRALTMDSKKRIGWRFIRIDTSCVCTLTIKRGR
B2 was tested, and the “effective in the neurogenesis assay” value [2] was “Only one (leukemia inhibitory factor) was effective”.

B3: neurotrophic factor-3 (protein, UniProt P20783 139-257, looked up)
Neurotrophin-3: YAEHKSHRGEYSVCDSESLWVTDKSSAIDIRGHQVTVLGEIKTGNSPVKQYFYETRCKEARPVKNGCRGIDDKHWNSQCKTSQTYVRALTSENNKLVGWRWIRIDTSCVCALSRKIGRT
In the case of B3, the “effective in the neurogenesis assay” value [2] is reported as “Only one (leukemia inhibitory factor) was effective”.
